Results taken from PubChem BioAssay (NCI).
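All cell lines were grown in 96-well plates and treated with compound for 48 hours. Definition used: TGI = concentration required for complete inhibition of growth.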

Columns and labels:
Assay in all cases: DTP human tumour cell line panel, 48 h
UACC-62 melanoma = test system: UACC-62 melanoma
RXF-631 renal = test system: RXF-631 renal
KM20L2 colon = test system: KM20L2 colon
LOX IMVI melanoma = test system: LOX IMVI melanoma
OVCAR-8 ovarian = test system: OVCAR-8 ovarian
OVCAR-4 ovarian = test system: OVCAR-4 ovarian
MOLT-4 leukemia = test system: MOLT-4 leukemia
A498 renal = test system: A498 renal
HL-60(TB) leukemia = test system: HL-60(TB) leukemia
CCRF-CEM leukemia = test system: CCRF-CEM leukemia
UACC-257 melanoma = test system: UACC-257 melanoma
SW-620 colon = test system: SW-620 colon
U251 CNS = test system: U251 CNS
RXF 393 renal = test system: RXF 393 renal
EKVX NSCLC = test system: EKVX NSCLC
OVCAR-3 ovarian = test system: OVCAR-3 ovarian
HOP-92 NSCLC = test system: HOP-92 NSCLC
NCI-H460 lung = test system: NCI-H460 lung
K-562 leukemia = test system: K-562 leukemia
HT29 colon = test system: HT29 colon
IGROV1 ovarian = test system: IGROV1 ovarian
786-0 renal = test system: 786-0 renal
NCI-H23 lung = test system: NCI-H23 lung
CAKI-1 renal = test system: CAKI-1 renal
DMS 114 small cell lung = test system: DMS 114 small cell lung
HOP-62 NSCLC = test system: HOP-62 NSCLC
HCT-116 colon = test system: HCT-116 colon
MALME-3M melanoma = test system: MALME-3M melanoma
DLD-1 colon = test system: DLD-1 colon
SF-295 CNS = test system: SF-295 CNS
OVCAR-5 ovarian = test system: OVCAR-5 ovarian
NCI-H522 lung = test system: NCI-H522 lung
HCC-2998 colon = test system: HCC-2998 colon
RPMI-8226 leukemia = test system: RPMI-8226 leukemia
SK-MEL-28 melanoma = test system: SK-MEL-28 melanoma
M19-MEL melanoma = test system: M19-MEL melanoma
LXFL 529 NSCLC = test system: LXFL 529 NSCLC
SF-539 CNS = test system: SF-539 CNS
SN12C renal = test system: SN12C renal
SK-OV-3 ovarian = test system: SK-OV-3 ovarian
TK-10 renal = test system: TK-10 renal
COLO 205 colon = test system: COLO 205 colon
SK-MEL-5 melanoma = test system: SK-MEL-5 melanoma
SNB-78 CNS = test system: SNB-78 CNS
XF 498 CNS = test system: XF 498 CNS
KM12 colon = test system: KM12 colon
M14 melanoma = test system: M14 melanoma
A549 NSCLC = test system: A549 NSCLC
SNB-75 CNS = test system: SNB-75 CNS
NCI-H226 lung = test system: NCI-H226 lung
SF-268 CNS = test system: SF-268 CNS
SK-MEL-2 melanoma = test system: SK-MEL-2 melanoma
UO-31 renal = test system: UO-31 renal
SNB-19 CNS = test system: SNB-19 CNS
HOP-18 NSCLC = test system: HOP-18 NSCLC
ACHN renal = test system: ACHN renal
HCT-15 colon = test system: HCT-15 colon
SR leukemia = test system: SR leukemia
DMS 273 small cell lung = test system: DMS 273 small cell lung

CCOC(=O)C1=C(Nc2ccccc2)OC/C1=N\NC(=O)Cc1ccccc1
TGI (UACC-62 melanoma): > 50 µM
TGI (RXF-631 renal): > 50 µM
TGI (KM20L2 colon): > 50 µM
TGI (LOX IMVI melanoma): > 50 µM
TGI (OVCAR-8 ovarian): > 50 µM
TGI (OVCAR-4 ovarian): > 50 µM
TGI (MOLT-4 leukemia): > 50 µM
TGI (A498 renal): > 50 µM
TGI (HL-60(TB) leukemia): > 50 µM
TGI (CCRF-CEM leukemia): > 50 µM
TGI (UACC-257 melanoma): > 50 µM
TGI (SW-620 colon): > 50 µM
TGI (U251 CNS): > 50 µM
TGI (RXF 393 renal): > 50 µM
TGI (EKVX NSCLC): > 50 µM
TGI (OVCAR-3 ovarian): > 50 µM
TGI (HOP-92 NSCLC): > 50 µM
TGI (NCI-H460 lung): > 50 µM
TGI (K-562 leukemia): > 50 µM
TGI (HT29 colon): > 50 µM
TGI (IGROV1 ovarian): > 50 µM
TGI (786-0 renal): > 50 µM
TGI (NCI-H23 lung): > 50 µM
TGI (CAKI-1 renal): > 50 µM
TGI (DMS 114 small cell lung): > 50 µM
TGI (HOP-62 NSCLC): > 50 µM
TGI (HCT-116 colon): > 50 µM
TGI (MALME-3M melanoma): > 50 µM
TGI (DLD-1 colon): > 50 µM
TGI (SF-295 CNS): > 50 µM
TGI (OVCAR-5 ovarian): > 50 µM
TGI (NCI-H522 lung): > 50 µM
TGI (HCC-2998 colon): > 50 µM
TGI (RPMI-8226 leukemia): > 50 µM
TGI (SK-MEL-28 melanoma): > 50 µM
TGI (M19-MEL melanoma): > 50 µM
TGI (LXFL 529 NSCLC): > 50 µM
TGI (SF-539 CNS): > 50 µM
TGI (SN12C renal): > 50 µM
TGI (SK-OV-3 ovarian): > 50 µM
TGI (TK-10 renal): > 50 µM
TGI (COLO 205 colon): > 50 µM
TGI (SK-MEL-5 melanoma): > 50 µM
TGI (SNB-78 CNS): > 50 µM
TGI (XF 498 CNS): > 50 µM
TGI (KM12 colon): > 50 µM
TGI (M14 melanoma): > 50 µM
TGI (A549 NSCLC): > 50 µM
TGI (SNB-75 CNS): > 50 µM
TGI (NCI-H226 lung): > 50 µM
TGI (SF-268 CNS): > 50 µM
TGI (SK-MEL-2 melanoma): > 50 µM
TGI (UO-31 renal): > 50 µM
TGI (SNB-19 CNS): > 50 µM
TGI (HOP-18 NSCLC): > 50 µM

CCOC(=O)CC(=O)ON(C)C(=O)Cc1ccccc1
TGI (UACC-62 melanoma): > 100 µM
TGI (RXF-631 renal): > 100 µM
TGI (KM20L2 colon): > 100 µM
TGI (LOX IMVI melanoma): > 100 µM
TGI (OVCAR-8 ovarian): > 100 µM
TGI (OVCAR-4 ovarian): > 100 µM
TGI (A498 renal): > 100 µM
TGI (HL-60(TB) leukemia): > 100 µM
TGI (CCRF-CEM leukemia): > 100 µM
TGI (UACC-257 melanoma): > 100 µM
TGI (SW-620 colon): > 100 µM
TGI (U251 CNS): > 100 µM
TGI (EKVX NSCLC): > 100 µM
TGI (OVCAR-3 ovarian): > 100 µM
TGI (ACHN renal): > 100 µM
TGI (NCI-H460 lung): > 100 µM
TGI (HCT-15 colon): > 100 µM
TGI (HT29 colon): > 100 µM
TGI (IGROV1 ovarian): > 100 µM
TGI (786-0 renal): > 100 µM
TGI (NCI-H23 lung): > 100 µM
TGI (CAKI-1 renal): > 100 µM
TGI (DMS 114 small cell lung): > 100 µM
TGI (HOP-62 NSCLC): > 100 µM
TGI (HCT-116 colon): > 100 µM
TGI (MALME-3M melanoma): > 100 µM
TGI (DLD-1 colon): > 100 µM
TGI (SR leukemia): > 100 µM
TGI (SF-295 CNS): > 100 µM
TGI (OVCAR-5 ovarian): > 100 µM
TGI (NCI-H522 lung): > 100 µM
TGI (RPMI-8226 leukemia): > 100 µM
TGI (M19-MEL melanoma): > 100 µM
TGI (LXFL 529 NSCLC): > 100 µM
TGI (SF-539 CNS): > 100 µM
TGI (SN12C renal): > 100 µM
TGI (SK-OV-3 ovarian): > 100 µM
TGI (COLO 205 colon): > 100 µM
TGI (SK-MEL-5 melanoma): > 100 µM
TGI (SNB-78 CNS): > 100 µM
TGI (KM12 colon): > 100 µM
TGI (M14 melanoma): > 100 µM
TGI (A549 NSCLC): > 100 µM
TGI (NCI-H226 lung): > 100 µM
TGI (SF-268 CNS): > 100 µM
TGI (SK-MEL-2 melanoma): > 100 µM
TGI (UO-31 renal): > 100 µM
TGI (SNB-19 CNS): > 100 µM

Cc1ccc(SSCCCS(=O)O)cc1
TGI (UACC-62 melanoma): > 100 µM
TGI (RXF-631 renal): > 100 µM
TGI (KM20L2 colon): > 100 µM
TGI (LOX IMVI melanoma): 32.3 µM
TGI (OVCAR-8 ovarian): 50 µM
TGI (OVCAR-4 ovarian): > 100 µM
TGI (MOLT-4 leukemia): 50.6 µM
TGI (A498 renal): 69.9 µM
TGI (HL-60(TB) leukemia): 6.49 µM
TGI (UACC-257 melanoma): > 100 µM
TGI (SW-620 colon): > 100 µM
TGI (U251 CNS): 41.2 µM
TGI (RXF 393 renal): 72.3 µM
TGI (EKVX NSCLC): 88.5 µM
TGI (OVCAR-3 ovarian): > 100 µM
TGI (ACHN renal): > 100 µM
TGI (NCI-H460 lung): > 100 µM
TGI (K-562 leukemia): > 100 µM
TGI (HCT-15 colon): > 100 µM
TGI (HT29 colon): > 100 µM
TGI (IGROV1 ovarian): 27.4 µM
TGI (786-0 renal): > 100 µM
TGI (NCI-H23 lung): > 100 µM
TGI (CAKI-1 renal): > 100 µM
TGI (DMS 114 small cell lung): 37.1 µM
TGI (HOP-62 NSCLC): 78.4 µM
TGI (HCT-116 colon): > 100 µM
TGI (MALME-3M melanoma): > 100 µM
TGI (DLD-1 colon): > 100 µM
TGI (SF-295 CNS): > 100 µM
TGI (OVCAR-5 ovarian): > 100 µM
TGI (NCI-H522 lung): 37.5 µM
TGI (HCC-2998 colon): > 100 µM
TGI (SK-MEL-28 melanoma): > 100 µM
TGI (M19-MEL melanoma): > 100 µM
TGI (LXFL 529 NSCLC): > 100 µM
TGI (SF-539 CNS): 40.6 µM
TGI (SN12C renal): > 100 µM
TGI (SK-OV-3 ovarian): 85.9 µM
TGI (TK-10 renal): > 100 µM
TGI (COLO 205 colon): 52.9 µM
TGI (SK-MEL-5 melanoma): > 100 µM
TGI (XF 498 CNS): > 100 µM
TGI (KM12 colon): > 100 µM
TGI (M14 melanoma): 96.8 µM
TGI (A549 NSCLC): > 100 µM
TGI (SNB-75 CNS): 79.5 µM
TGI (SF-268 CNS): 48.2 µM
TGI (SK-MEL-2 melanoma): > 100 µM
TGI (UO-31 renal): > 100 µM
TGI (DMS 273 small cell lung): 79 µM
TGI (SNB-19 CNS): > 100 µM
TGI (HOP-18 NSCLC): > 100 µM

COc1ccc(/C=C/c2cc(OC)c(O[Si](C)(C)C(C)(C)C)c(OC)c2)cc1
TGI (UACC-62 melanoma): > 100 µM
TGI (RXF-631 renal): > 100 µM
TGI (KM20L2 colon): > 100 µM
TGI (OVCAR-8 ovarian): > 100 µM
TGI (OVCAR-4 ovarian): > 100 µM
TGI (MOLT-4 leukemia): > 100 µM
TGI (A498 renal): > 100 µM
TGI (CCRF-CEM leukemia): > 100 µM
TGI (UACC-257 melanoma): > 100 µM
TGI (SW-620 colon): > 100 µM
TGI (U251 CNS): > 100 µM
TGI (EKVX NSCLC): > 100 µM
TGI (OVCAR-3 ovarian): > 100 µM
TGI (HOP-92 NSCLC): > 100 µM
TGI (ACHN renal): > 100 µM
TGI (NCI-H460 lung): > 100 µM
TGI (K-562 leukemia): > 100 µM
TGI (HCT-15 colon): > 100 µM
TGI (HT29 colon): > 100 µM
TGI (IGROV1 ovarian): > 100 µM
TGI (786-0 renal): > 100 µM
TGI (NCI-H23 lung): > 100 µM
TGI (CAKI-1 renal): > 100 µM
TGI (DMS 114 small cell lung): > 100 µM
TGI (HOP-62 NSCLC): > 100 µM
TGI (HCT-116 colon): > 100 µM
TGI (MALME-3M melanoma): > 100 µM
TGI (DLD-1 colon): > 100 µM
TGI (OVCAR-5 ovarian): > 100 µM
TGI (NCI-H522 lung): > 100 µM
TGI (HCC-2998 colon): > 100 µM
TGI (RPMI-8226 leukemia): > 100 µM
TGI (SK-MEL-28 melanoma): 86.6 µM
TGI (M19-MEL melanoma): > 100 µM
TGI (LXFL 529 NSCLC): > 100 µM
TGI (SF-539 CNS): > 100 µM
TGI (SN12C renal): > 100 µM
TGI (SK-OV-3 ovarian): > 100 µM
TGI (COLO 205 colon): > 100 µM
TGI (SK-MEL-5 melanoma): > 100 µM
TGI (XF 498 CNS): > 100 µM
TGI (KM12 colon): > 100 µM
TGI (M14 melanoma): > 100 µM
TGI (A549 NSCLC): > 100 µM
TGI (SNB-75 CNS): > 100 µM
TGI (NCI-H226 lung): > 100 µM
TGI (SF-268 CNS): > 100 µM
TGI (SK-MEL-2 melanoma): > 100 µM
TGI (UO-31 renal): > 100 µM
TGI (DMS 273 small cell lung): > 100 µM
TGI (SNB-19 CNS): > 100 µM
